Patent publication US9056922B2, “Chimeric relaxin polypeptides comprising an A and B chain derived from different relaxin family peptides” (HOWARD FLOREY INSTITUTE OF EX[…] MEDICINE, priority 2007, dated 2015)
pEC50, pKi: −log10 of the molar value.

Legend:
[1] = target: LGR8 (RXFP2) receptor (Homo sapiens, UniProt Q8WXD0); assay: cell-based
Description: Data are presented as the mean±S.E.M. of at least 1 experiment (number performed shown in parentheses in Table 1) performed in triplicate.

[2] = target: T1, LGR7 receptor (Homo sapiens, UniProt Q9HBX9); assay: Whole cell [125I]-labelled H2 relaxin competition binding assay
T1 construct: expressed in transfected cells; host or cells: HEK293T
T1 sequence (Q9HBX9 1-757): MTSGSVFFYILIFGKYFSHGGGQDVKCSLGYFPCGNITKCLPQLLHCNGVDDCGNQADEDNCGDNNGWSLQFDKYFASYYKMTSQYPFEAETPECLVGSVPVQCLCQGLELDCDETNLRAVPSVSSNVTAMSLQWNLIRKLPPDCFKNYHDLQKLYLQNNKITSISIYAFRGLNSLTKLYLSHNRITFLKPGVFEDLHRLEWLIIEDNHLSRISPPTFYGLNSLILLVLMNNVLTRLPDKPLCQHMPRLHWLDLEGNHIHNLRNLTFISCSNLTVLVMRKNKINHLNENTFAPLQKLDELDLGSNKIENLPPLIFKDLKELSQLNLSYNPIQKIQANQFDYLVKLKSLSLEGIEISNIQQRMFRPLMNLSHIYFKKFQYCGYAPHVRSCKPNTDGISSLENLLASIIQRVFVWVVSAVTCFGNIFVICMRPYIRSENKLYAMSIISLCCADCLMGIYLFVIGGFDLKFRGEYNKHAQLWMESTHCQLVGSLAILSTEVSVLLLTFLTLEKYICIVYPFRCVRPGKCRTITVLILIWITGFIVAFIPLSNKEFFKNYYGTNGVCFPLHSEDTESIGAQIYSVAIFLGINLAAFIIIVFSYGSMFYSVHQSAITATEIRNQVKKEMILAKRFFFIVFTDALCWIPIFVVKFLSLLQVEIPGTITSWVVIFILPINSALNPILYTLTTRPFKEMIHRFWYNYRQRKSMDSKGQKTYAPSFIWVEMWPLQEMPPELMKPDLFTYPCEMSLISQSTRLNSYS
Description: Briefly, HEK293T cells were plated out into 24-well plates (450,000 cells per well) or 48-well plates (225,000 cells per well), and transfected with pcDNA3.1/zeo plasmid containing the receptor of interest the following day as described above in Example 2. […] Non-specific binding was determined by addition of excess unlabelled relaxin (500 nM). Data were analysed using GraphPad Prism.

[3] = target: T2, LGR7 (RXFP1) receptor (Homo sapiens, UniProt Q9HBX9); assay: cAMP reporter gene assay (pCRE-β-galactosidase) in LGR7-expressing cells; format: cell-based
T2 construct: expressed in transfected cells; host or cells: HEK-293T
T2 sequence (Q9HBX9 1-757): T1 sequence (Q9HBX9 1-757)
Description: In the present study the inventors investigated the ability of chimeric polypeptides generated herein (see Example 1) to stimulate cAMP production in cells expressing either the LGR7 or LGR8 receptor.
Receptor cAMP signaling was assessed using a cAMP reporter gene assay. […] Transfected cells were incubated with increasing concentrations of peptides for 6 hrs after which the media was aspirated and the cells frozen at −80° C. overnight. The amount of cAMP-driven β-galactosidase expression in each well was determined by incubating the cells in 25 μl of lysis buffer (10 mM Na2HPO4, pH 8.0, 0.2 mM MgSO4, 0.01 mM MnCl2) for 10 minutes, 100 μl of assay buffer (100 mM Na2HPO4, pH 8.0, 2 mM MgSO4, 0.1 mM MnCl2, 0.5% Triton X-100, 40 mM B-mercaptoethanol) for a further 10 minutes before 25 μL of enzyme substrate solution (1 mg/ml chlorophenol red B-D galactopyranoside (Roche) in 100 mM Na2HPO4, pH 8.0, 2 mM MgSO4, 0.1 mM MnCl2) was added to each well and the plate incubated for 3 h or overnight. The absorbance of each well was determined at 570 nm using a Ceres UV900C plate reader (Bio-Tek Instruments, Vermont, USA).
All experiments were repeated at least three times with triplicate determinations within each assay.
Data are presented as the mean±S.E.M. of […] (number performed shown in parentheses in Table 1) performed in triplicate.

Sequence of LGR8 (RXFP2) receptor (Q8WXD0 whole entry): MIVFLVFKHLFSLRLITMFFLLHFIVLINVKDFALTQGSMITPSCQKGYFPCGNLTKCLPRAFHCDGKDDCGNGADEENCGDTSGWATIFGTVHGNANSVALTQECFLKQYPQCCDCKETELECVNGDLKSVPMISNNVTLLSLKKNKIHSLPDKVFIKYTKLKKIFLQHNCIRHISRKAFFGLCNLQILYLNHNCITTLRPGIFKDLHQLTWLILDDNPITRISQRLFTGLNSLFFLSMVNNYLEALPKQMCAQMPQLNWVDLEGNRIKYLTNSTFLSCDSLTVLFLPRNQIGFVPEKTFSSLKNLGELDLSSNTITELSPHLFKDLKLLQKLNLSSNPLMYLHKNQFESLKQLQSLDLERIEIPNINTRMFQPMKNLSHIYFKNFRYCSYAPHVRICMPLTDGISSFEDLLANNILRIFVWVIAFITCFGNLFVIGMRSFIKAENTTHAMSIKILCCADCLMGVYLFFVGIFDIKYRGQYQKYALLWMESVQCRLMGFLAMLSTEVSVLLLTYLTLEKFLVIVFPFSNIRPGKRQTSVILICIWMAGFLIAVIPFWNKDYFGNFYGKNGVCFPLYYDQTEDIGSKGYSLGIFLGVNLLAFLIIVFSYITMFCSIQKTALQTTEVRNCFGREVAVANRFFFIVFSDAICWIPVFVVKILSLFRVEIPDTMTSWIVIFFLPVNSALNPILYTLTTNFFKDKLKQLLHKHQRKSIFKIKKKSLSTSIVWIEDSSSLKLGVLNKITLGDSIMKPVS

SMILES | pEC50 [1] | pKi [2] | pEC50 [3]
CC[C@H](C)[C@@H]1NC(=O)[C@H](C)NC(=O)[C@H]([C@@H](C)CC)NC(=O)[C@H](CCC(N)=O)NC(=O)[C@H](C)NC(=O)[C@H](CCCNC(=N)N)NC(=O)[C@H](C(C)C)NC(=O)[C@H](CC(C)C)NC(=O)[C@H](CCC(=O)O)NC(=O)[C@H](CCCNC(=N)N)NC(=O)CNC(=O)[C@@H](NC(=O)[C@H](CC(C)C)NC(=O)[C@H](CCCCN)NC(=O)[C@@H](NC(=O)[C@@H](NC(=O)[C@H](CCC(=O)O)NC(=O)[C@H](CCC(=O)O)NC(=O)[C@H](CCSC)NC(=O)[C@H](Cc2c[nH]c3ccccc23)NC(=O)[C@H](CO)NC(=O)[C@@H](N)CC(=O)O)C(C)C)[C@@H](C)CC)CSSC[C@@H]2NC(=O)[C@@H](NC(=O)[C@H](CO)NC(=O)[C@H](CO)NC(=O)[C@H](CO)NC(=O)[C@H](CC(C)C)NC(=O)CNC(=O)[C@H](C)NC(=O)[C@H](CC(C)C)NC(=O)[C@@H](NC(=O)[C@@H](N)CC(=O)O)C(C)C)CSSC[C@H](NC(=O)CNC(=O)[C@H](Cc3c[nH]c4ccccc34)NC(=O)[C@H](CCCCN)NC2=O)C(=O)N[C@@H](CO)C(=O)N[C@@H](CCCCN)C(=O)N[C@@H](CO)C(=O)N[C@@H](CCC(=O)O)C(=O)N[C@@H]([C@@H](C)CC)C(=O)N[C@@H](CO)C(=O)N[C@@H](CO)C(=O)N[C@@H](CC(C)C)C(=O)N[C@H](C(=O)O)CSSC[C@@H](C(=O)NCC(=O)N[C@@H](CCSC)C(=O)N[C@@H](CO)C(=O)N[C@H](C(=O)N[C@@H](Cc2c[nH]c3ccccc23)C(=O)N[C@@H](CO)C(=O)O)[C@@H](C)O)NC1=O [H2-B/H3-A] | 5.34 | 6.80 | 8.10
CC[C@H](C)[C@@H]1NC(=O)[C@H](C)NC(=O)[C@H]([C@@H](C)CC)NC(=O)[C@H](CCC(N)=O)NC(=O)[C@H](C)NC(=O)[C@H](CCCNC(=N)N)NC(=O)[C@H](C(C)C)NC(=O)[C@H](CC(C)C)NC(=O)[C@H](CCC(=O)O)NC(=O)[C@H](CCCNC(=N)N)NC(=O)CNC(=O)[C@@H](NC(=O)[C@H](CC(C)C)NC(=O)[C@H](CCCCN)NC(=O)[C@@H](NC(=O)[C@@H](NC(=O)[C@H](CCC(=O)O)NC(=O)[C@H](CCC(=O)O)NC(=O)[C@H](CCSC)NC(=O)[C@H](Cc2c[nH]c3ccccc23)NC(=O)[C@H](CO)NC(=O)[C@@H](N)CC(=O)O)C(C)C)[C@@H](C)CC)CSSC[C@@H]2NC(=O)[C@@H](NC(=O)[C@H](Cc3ccc(O)cc3)NC(=O)[C@H](CCCNC(=N)N)NC(=O)[C@H](C)NC(=O)[C@@H]3CCCN3C(=O)[C@H](CC(N)=O)NC(=O)[C@@H](NC(=O)[C@H](C)NC(=O)[C@H](C)NC(=O)[C@H](C)N)[C@@H](C)O)CSSC[C@H](NC(=O)CNC(=O)[C@H](CO)NC(=O)[C@H](CC(C)C)NC2=O)C(=O)N[C@@H]([C@@H](C)O)C(=O)N[C@@H](CCC(N)=O)C(=O)N[C@@H](CCC(N)=O)C(=O)N[C@@H](CC(=O)O)C(=O)N[C@@H](CC(C)C)C(=O)N[C@@H](CC(C)C)C(=O)N[C@@H]([C@@H](C)O)C(=O)N[C@@H](CC(C)C)C(=O)N[C@H](C(=O)N2CCC[C@H]2C(=O)N[C@@H](Cc2ccc(O)cc2)C(=O)O)CSSC[C@@H](C(=O)NCC(=O)N[C@@H](CCSC)C(=O)N[C@@H](CO)C(=O)N[C@H](C(=O)N[C@@H](Cc2c[nH]c3ccccc23)C(=O)N[C@@H](CO)C(=O)O)[C@@H](C)O)NC1=O [H2-B/INSL3-A] | > 6.00 | 6.21 | < 6.00
